From PubChem BioAssay (NCI)
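1) Cells in 96-well plates. 2) Compound, 48 h, 5 concentrations. 3) Linear interpolation between surrounding doses. 4) Unreached endpoint = highest concentration. The concentration for 50% growth inhibition is given as GI50. Definition used: TGI = concentration required for complete inhibition of growth.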

Columns and labels:
Test in all cases: DTP human tumour cell line panel, 48 h
786-0 renal = tested on: 786-0 renal
A498 renal = tested on: A498 renal
A549 NSCLC = tested on: A549 NSCLC
ACHN renal = tested on: ACHN renal
BT-549 breast = tested on: BT-549 breast
CAKI-1 renal = tested on: CAKI-1 renal
CCRF-CEM leukemia = tested on: CCRF-CEM leukemia
COLO 205 colon = tested on: COLO 205 colon
DU-145 prostate = tested on: DU-145 prostate
EKVX NSCLC = tested on: EKVX NSCLC
HCC-2998 colon = tested on: HCC-2998 colon
HCT-116 colon = tested on: HCT-116 colon
HCT-15 colon = tested on: HCT-15 colon
HL-60(TB) leukemia = tested on: HL-60(TB) leukemia
HOP-62 NSCLC = tested on: HOP-62 NSCLC
HOP-92 NSCLC = tested on: HOP-92 NSCLC
HS 578T breast = tested on: HS 578T breast
HT29 colon = tested on: HT29 colon
IGROV1 ovarian = tested on: IGROV1 ovarian
K-562 leukemia = tested on: K-562 leukemia
KM12 colon = tested on: KM12 colon
LOX IMVI melanoma = tested on: LOX IMVI melanoma
M14 melanoma = tested on: M14 melanoma
MALME-3M melanoma = tested on: MALME-3M melanoma
MCF7 breast = tested on: MCF7 breast
MDA-MB-231 breast = tested on: MDA-MB-231 breast
MDA-MB-435 = tested on: MDA-MB-435
MDA-MB-468 breast = tested on: MDA-MB-468 breast
MOLT-4 leukemia = tested on: MOLT-4 leukemia
NCI-H226 lung = tested on: NCI-H226 lung
NCI-H23 lung = tested on: NCI-H23 lung
NCI-H460 lung = tested on: NCI-H460 lung
NCI-H522 lung = tested on: NCI-H522 lung
NCI/ADR-RES ovarian = tested on: NCI/ADR-RES ovarian
OVCAR-3 ovarian = tested on: OVCAR-3 ovarian
OVCAR-4 ovarian = tested on: OVCAR-4 ovarian
OVCAR-5 ovarian = tested on: OVCAR-5 ovarian
OVCAR-8 ovarian = tested on: OVCAR-8 ovarian
PC-3 prostate = tested on: PC-3 prostate
RPMI-8226 leukemia = tested on: RPMI-8226 leukemia
RXF 393 renal = tested on: RXF 393 renal
SF-268 CNS = tested on: SF-268 CNS
SF-295 CNS = tested on: SF-295 CNS
SF-539 CNS = tested on: SF-539 CNS
SK-MEL-2 melanoma = tested on: SK-MEL-2 melanoma
SK-MEL-28 melanoma = tested on: SK-MEL-28 melanoma
SK-MEL-5 melanoma = tested on: SK-MEL-5 melanoma
SK-OV-3 ovarian = tested on: SK-OV-3 ovarian
SN12C renal = tested on: SN12C renal
SNB-19 CNS = tested on: SNB-19 CNS
SR leukemia = tested on: SR leukemia
SW-620 colon = tested on: SW-620 colon
T-47D breast = tested on: T-47D breast
TK-10 renal = tested on: TK-10 renal
U251 CNS = tested on: U251 CNS
UACC-257 melanoma = tested on: UACC-257 melanoma
UACC-62 melanoma = tested on: UACC-62 melanoma
UO-31 renal = tested on: UO-31 renal

COc1ccc(C(=O)/C=C/c2c(F)cccc2Cl)cc1S(N)(=O)=O
GI50 (786-0 renal): 2.99 µM
TGI (786-0 renal): 10.5 µM
GI50 (A498 renal): 15.9 µM
TGI (A498 renal): 32 µM
GI50 (A549 NSCLC): 2.38 µM
TGI (A549 NSCLC): 10.1 µM
GI50 (ACHN renal): 2.8 µM
TGI (ACHN renal): 8.33 µM
GI50 (BT-549 breast): 2.72 µM
TGI (BT-549 breast): 8.63 µM
GI50 (CAKI-1 renal): 4.07 µM
TGI (CAKI-1 renal): 13.9 µM
GI50 (CCRF-CEM leukemia): 2.59 µM
TGI (CCRF-CEM leukemia): 6.78 µM
GI50 (COLO 205 colon): 2.17 µM
TGI (COLO 205 colon): 3.95 µM
GI50 (DU-145 prostate): 3.3 µM
TGI (DU-145 prostate): 12.5 µM
GI50 (EKVX NSCLC): 4.12 µM
TGI (EKVX NSCLC): 14.4 µM
GI50 (HCC-2998 colon): 2.78 µM
TGI (HCC-2998 colon): 10.3 µM
GI50 (HCT-116 colon): 1.76 µM
TGI (HCT-116 colon): 3.78 µM
GI50 (HCT-15 colon): 1.35 µM
TGI (HCT-15 colon): 3.38 µM
GI50 (HL-60(TB) leukemia): 1.65 µM
TGI (HL-60(TB) leukemia): 6.46 µM
GI50 (HOP-62 NSCLC): 3.01 µM
TGI (HOP-62 NSCLC): 9.42 µM
GI50 (HOP-92 NSCLC): 3.58 µM
TGI (HOP-92 NSCLC): 15.3 µM
GI50 (HS 578T breast): 6.43 µM
TGI (HS 578T breast): > 100 µM
GI50 (HT29 colon): 1.91 µM
TGI (HT29 colon): 3.81 µM
GI50 (IGROV1 ovarian): 2.8 µM
TGI (IGROV1 ovarian): 10.4 µM
GI50 (K-562 leukemia): 2.82 µM
TGI (K-562 leukemia): 14.2 µM
GI50 (KM12 colon): 2.59 µM
TGI (KM12 colon): 6.66 µM
GI50 (LOX IMVI melanoma): 1.61 µM
TGI (LOX IMVI melanoma): 3.34 µM
GI50 (M14 melanoma): 2.62 µM
TGI (M14 melanoma): 10.6 µM
GI50 (MALME-3M melanoma): 3.99 µM
TGI (MALME-3M melanoma): 16.4 µM
GI50 (MCF7 breast): 2.19 µM
TGI (MCF7 breast): 11.2 µM
GI50 (MDA-MB-231 breast): 2.88 µM
TGI (MDA-MB-231 breast): 7.71 µM
GI50 (MDA-MB-435): 3.39 µM
TGI (MDA-MB-435): 15.7 µM
GI50 (MDA-MB-468 breast): 1.47 µM
TGI (MDA-MB-468 breast): 4.12 µM
GI50 (MOLT-4 leukemia): 2.41 µM
TGI (MOLT-4 leukemia): 7.58 µM
GI50 (NCI-H226 lung): 3.23 µM
TGI (NCI-H226 lung): 12.3 µM
GI50 (NCI-H23 lung): 3.04 µM
TGI (NCI-H23 lung): 10.8 µM
GI50 (NCI-H460 lung): 3.01 µM
TGI (NCI-H460 lung): > 100 µM
GI50 (NCI-H522 lung): 1.67 µM
TGI (NCI-H522 lung): 3.51 µM
GI50 (NCI/ADR-RES ovarian): 2.83 µM
TGI (NCI/ADR-RES ovarian): 9.24 µM
GI50 (OVCAR-3 ovarian): 2.53 µM
TGI (OVCAR-3 ovarian): 8.4 µM
GI50 (OVCAR-4 ovarian): 4.13 µM
TGI (OVCAR-4 ovarian): 20.5 µM
GI50 (OVCAR-5 ovarian): 3.02 µM
TGI (OVCAR-5 ovarian): 11.1 µM
GI50 (OVCAR-8 ovarian): 3.01 µM
TGI (OVCAR-8 ovarian): 12.3 µM
GI50 (PC-3 prostate): 4.67 µM
TGI (PC-3 prostate): 19.7 µM
GI50 (RPMI-8226 leukemia): 2.57 µM
TGI (RPMI-8226 leukemia): 8 µM
GI50 (RXF 393 renal): 1.74 µM
TGI (RXF 393 renal): 4.56 µM
GI50 (SF-268 CNS): 3.33 µM
TGI (SF-268 CNS): 16.7 µM
GI50 (SF-295 CNS): 3.1 µM
TGI (SF-295 CNS): 11 µM
GI50 (SF-539 CNS): 2.01 µM
TGI (SF-539 CNS): 4.22 µM
GI50 (SK-MEL-2 melanoma): 3.96 µM
TGI (SK-MEL-2 melanoma): 16.4 µM
GI50 (SK-MEL-28 melanoma): 3.6 µM
TGI (SK-MEL-28 melanoma): 14 µM
GI50 (SK-MEL-5 melanoma): 3.06 µM
TGI (SK-MEL-5 melanoma): 12.3 µM
GI50 (SK-OV-3 ovarian): 5.36 µM
TGI (SK-OV-3 ovarian): 17.1 µM
GI50 (SN12C renal): 2.59 µM
TGI (SN12C renal): 10.5 µM
GI50 (SNB-19 CNS): 4.24 µM
TGI (SNB-19 CNS): 15.2 µM
GI50 (SR leukemia): 1.41 µM
TGI (SR leukemia): 5.61 µM
GI50 (SW-620 colon): 3.61 µM
TGI (SW-620 colon): 20.7 µM
GI50 (T-47D breast): 2.42 µM
TGI (T-47D breast): 9.53 µM
GI50 (TK-10 renal): 3.53 µM
TGI (TK-10 renal): 9.79 µM
GI50 (U251 CNS): 1.73 µM
TGI (U251 CNS): 3.69 µM
GI50 (UACC-257 melanoma): 2.99 µM
TGI (UACC-257 melanoma): 16.6 µM
GI50 (UACC-62 melanoma): 2.02 µM
TGI (UACC-62 melanoma): 6.55 µM
GI50 (UO-31 renal): 2.94 µM
TGI (UO-31 renal): 11.9 µM
